Paper PMC13376213, “Systematic discovery of motif-based interactions of the auxiliary domains of USP family deubiquitinases” (Nature Communications, 2026)
Where two headings read alike, the source gives them in different places. Blank lines part the entries; values can stand above or below the compound they belong to. Ends that are not written are not given here. Peptide text beside a SMILES is read from it. * marks the point of attachment. FITC = O=C1OC2(c3ccc(O)cc3Oc3cc(O)ccc32)c2ccc(NC(=S)*)cc21

What was measured:
Type in all cases: binding
USP20 DUSP2 N805A = target: T1, USP20 DUSP2 N805A (Homo sapiens, UniProt Q9Y2K6, N805A); test: FP-monitored affinity measurements, USP20 DUSP2 single mutant
T1 construct: USP20_DUSP2; Q9Y2K6; DUSP2; 776; 894; 6xHis-GST (N, cleaved yes); made in house; host or cells: Escherichia coli BL21-Gold (DE3)
Procedure: (§1) Proteins were expressed in Escherichia coli (E.coli) BL21-Gold (DE3) bacteria. The cDNAs encoding N-terminal 6-histidine-glutathione S-transferase tagged (6xHis-GST), 6xHis-tagged or GST-tagged protein domains in pETM33, pETM11, pGEX6P1 expression vectors respectively, were obtained from Genescript or kindly provided by MRC-PPU (Suppl. Data 1) The bacteria were transformed with the plasmid and grew at 37 °C in 2YT (5 g/L NaCl, 16 g/L tryptone and 10 g/L yeast extract) supplemented with Kanamycin (30 μg/mL) until reaching an OD600 of 0.7. Protein expression was induced with 0.3 mM isopropyl β-D-1 thiogalactopyranoside (IPTG) for 18 h at 18 °C while shaking. For zinc-finger domains, 50 μM of ZnSO4 was added during expression. […] For fluorescence polarization experiments, the proteins were not eluted from the beads, and the 6xHis-GST tag was cleaved overnight on GSH Sepharose beads at 4 °C while shaking with PreScission Protease in cleavage buffer (50 mM Tris pH 7.5, 150 mM NaCl, 1 mM DTT). […] The purity and size of the proteins were analyzed by SDS-PAGE electrophoresis.
(§2) The measurements were performed at room temperature in a non-binding black half area 96-well plate (Corning) with a total volume of 50 μL per well. […] The data were analyzed using GraphPad Prism version 9.2.0 for MacOS (GraphPad Software, San Diego, California USA, www.graphpad.com). […]

USP20 DUSP2 domain = target: T2, USP20 DUSP2 domain (Homo sapiens, UniProt Q9Y2K6); test: FP-monitored affinity measurements, USP20 DUSP2; details: USP20_DUSP2; direct FP titration (saturation) of the FITC-labelled peptide; read-out: KD
T2 construct: USP20_DUSP2; Q9Y2K6; DUSP2; 776; 894; 6xHis-GST (N, cleaved yes); made in house; host or cells: Escherichia coli BL21-Gold (DE3)
Procedure: (§3) Proteins were expressed in Escherichia coli (E.coli) BL21-Gold (DE3) bacteria. The cDNAs encoding N-terminal 6-histidine-glutathione S-transferase tagged (6xHis-GST), 6xHis-tagged or GST-tagged protein domains in pETM33, pETM11, pGEX6P1 expression vectors respectively, were obtained from Genescript or kindly provided by MRC-PPU (Suppl. Data 1) The bacteria were transformed with the plasmid and grew at 37 °C in 2YT (5 g/L NaCl, 16 g/L tryptone and 10 g/L yeast extract) supplemented with Kanamycin (30 μg/mL) until reaching an OD600 of 0.7. Protein expression was induced with 0.3 mM isopropyl β-D-1 thiogalactopyranoside (IPTG) for 18 h at 18 °C while shaking. For zinc-finger domains, 50 μM of ZnSO4 was added during expression. The bacterial cultures were pelleted for 15 minutes at 4000 x g at 4 °C and stored at −20 °C until purification. The pellets were resuspended in lysis buffer (1× phosphate-buffered saline (PBS), 0.5 % Triton-X, 5 mM MgCl2, 10 μg/mL lysozyme, cOmplete^TM EDTA-free protease inhibitor cocktail (Roche), 10 μg/mL DNAseI) and incubated for 1 h shaking at 4 °C. […] The supernatant was incubated with glutathione (GSH) Sepharose (Cytiva) or Ni2+ Sepharose (Cytiva) for 1 h at 4 °C while shaking. The beads with the bound protein were washed with 1x PBS and eluted with 10 mM reduced glutathione in 50 mM Tris pH 8.0. For fluorescence polarization experiments, the proteins were not eluted from the beads, and the 6xHis-GST tag was cleaved overnight on GSH Sepharose beads at 4 °C while shaking with PreScission Protease in cleavage buffer (50 mM Tris pH 7.5, 150 mM NaCl, 1 mM DTT). The sample containing the cleaved domain was separated from the tag and protease and buffer-exchanged to 50 mM sodium phosphate buffer pH 7.4 with 1 mM DTT using a PD-10 desalting column (Cytiva). The purity and size of the proteins were analyzed by SDS-PAGE electrophoresis.
(§4) The measurements were performed at room temperature in a non-binding black half area 96-well plate (Corning) with a total volume of 50 μL per well. Peptides were obtained from GeneCust (France) with >95% purity. FITC-labeled peptides (N-terminally FITC-labeled without spacer and C-terminally amidated) were dissolved in dimethyl sulfoxide (DMSO), and unlabeled peptides (N-terminally acetylated and C-terminally amidated) were dissolved in 50 mM phosphate buffer pH 7.4. Saturation measurements were performed using a serial dilution of the protein domains in phosphate buffer (25 μL) and the addition of 10 nM FITC-labeled peptide (in phosphate buffer supplemented with 2 mM DTT) (25 μL). […] All measurements were performed in three technical replicates. The data were analyzed using GraphPad Prism version 9.2.0 for MacOS (GraphPad Software, San Diego, California USA, www.graphpad.com). The saturation curves were fitted to the quadratic equation, and the displacement curves were fitted to a sigmoidal dose-response equation as described previously.

USP20 DUSP2 K833E-K835E = target: T3, USP20 DUSP2 K833E-K835E (Homo sapiens, UniProt Q9Y2K6, K833E/K835E); test: FP-monitored affinity measurements, USP20 DUSP2 double mutant
T3 construct: USP20_DUSP2; Q9Y2K6; DUSP2; 776; 894; 6xHis-GST (N, cleaved yes); made in house; host or cells: Escherichia coli BL21-Gold (DE3)
Procedure: as §1, §2

USP22 zf-UBP domain = target: T4, USP22 zf-UBP domain (Homo sapiens, UniProt Q9UPT9); test: FP-monitored affinity measurements, USP22 zf-UBP; details: USP22_zf-UBP; FP displacement by unlabelled peptide
T4 construct: USP22_zf-UBP; Q9UPT9; zf-UBP; 37; 130; 6xHis-GST (N, cleaved yes); made in house; host or cells: Escherichia coli BL21-Gold (DE3)
T4 sequence (Q9UPT9 37-130): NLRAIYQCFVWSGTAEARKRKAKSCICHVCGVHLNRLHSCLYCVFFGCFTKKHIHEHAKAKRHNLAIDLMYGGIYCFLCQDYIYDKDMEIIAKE
Procedure: as §3, §4

USP11 DUSP-UBL domain = target: T5, USP11 DUSP-UBL domain (Homo sapiens, UniProt P51784); test: FP-based affinity measurements, USP11 DUSP-UBL; details: competitive FP; technical triplicates; read-out: KD, USP11 DUSP-UBL, unlabeled peptide (competitive binding)
T5 construct: USP11_UBL; P51784; UBL; 6xHis-GST (N, cleaved yes); made in house; host or cells: Escherichia coli BL21-Gold (DE3)
Procedure: as §3
as §4, with “The saturation curves were fitted to the quadratic equation, and the displacement curves were fitted to a sigmoidal dose-response equation as described previously.” left out

USP33 zf-UBP domain = target: T6, USP33 zf-UBP domain (Homo sapiens, UniProt Q8TEY7); test: FP-monitored affinity measurements, USP33 zf-UBP
T6 construct: USP33_UBP; Q8TEY7; zf-UBP; 36; 130; 6xHis-GST (N, cleaved yes); made in house; host or cells: Escherichia coli BL21-Gold (DE3)
T6 sequence (Q8TEY7 with tags, fused parts or gaps): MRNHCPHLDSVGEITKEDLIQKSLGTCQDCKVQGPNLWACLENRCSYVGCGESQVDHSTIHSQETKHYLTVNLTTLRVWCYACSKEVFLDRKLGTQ
Procedure: (§5) The measurements were performed at room temperature in a non-binding black half area 96-well plate (Corning) with a total volume of 50 μL per well. […] All measurements were performed in three technical replicates. […] The saturation curves were fitted to the quadratic equation, and the displacement curves were fitted to a sigmoidal dose-response equation as described previously[68].

USP20 zf-UBP domain = target: T7, USP20 zf-UBP domain (Homo sapiens, UniProt Q9Y2K6); test: FP-monitored affinity measurements, USP20 zf-UBP; details: for Kd: USP20_UBP, FP displacement by unlabelled peptide, read-out: KD
T7 construct: USP20_UBP; Q9Y2K6; zf-UBP; 99; 6xHis-GST (N, cleaved yes); made in house; host or cells: Escherichia coli BL21-Gold (DE3)
Procedure: as §5

[1] = FP-monitored affinity measurement (Supplementary Fig. 4D)

T7 sequence (Q9Y2K6 4-99): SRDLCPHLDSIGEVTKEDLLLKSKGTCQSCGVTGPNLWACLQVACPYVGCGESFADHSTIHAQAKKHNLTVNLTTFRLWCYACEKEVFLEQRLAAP
T3 sequence (Q9Y2K6 with tags, fused parts or gaps K833E/K835E): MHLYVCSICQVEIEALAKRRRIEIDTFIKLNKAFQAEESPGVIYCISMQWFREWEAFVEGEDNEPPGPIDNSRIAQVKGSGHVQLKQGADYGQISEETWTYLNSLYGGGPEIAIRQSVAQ
T1 sequence (Q9Y2K6 with tags, fused parts or gaps N805A): as the sequence (Q9Y2K6 with tags, fused parts or gaps K833E/K835E) above, with N31A, E59K, E61K counted along it
T2 sequence (Q9Y2K6 with tags, fused parts or gaps): as the sequence (Q9Y2K6 with tags, fused parts or gaps K833E/K835E) above, with E59K, E61K counted along it
T5 sequence (P51784 67-288): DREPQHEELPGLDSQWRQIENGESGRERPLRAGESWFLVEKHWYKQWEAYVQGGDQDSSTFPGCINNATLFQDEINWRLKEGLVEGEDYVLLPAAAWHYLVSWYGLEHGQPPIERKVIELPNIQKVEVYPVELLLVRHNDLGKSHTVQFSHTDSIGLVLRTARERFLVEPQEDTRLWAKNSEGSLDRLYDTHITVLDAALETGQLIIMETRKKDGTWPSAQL

Compound: CC[C@H](C)[C@H](NC(=O)[C@H](CC(N)=O)NC(=O)[C@H](Cc1c[nH]c2ccccc12)NC(=O)[C@H](C)NC(=O)[C@H](CC(C)C)NC(=O)[C@H](CC(=O)O)NC(=O)[C@H](CC(=O)O)NC(=O)[C@H](CC(=O)O)NC(=O)[C@H](CO)NC(=S)Nc1ccc2c(c1)C(=O)OC21c2ccc(O)cc2Oc2cc(O)ccc21)C(=O)N[C@@H](C)C(=O)N1CCC[C@H]1C(=O)N[C@@H](CCC(N)=O)C(=O)NCC(=O)N[C@@H](CC(C)C)C(=O)N[C@@H](CCC(N)=O)C(N)=O [FITC_GPR137B] ({FITC}-SDDDLAWNIAPQGLQ-NH2)
Kd (USP20 DUSP2 N805A; USP20_DUSP2_N805A, direct FP titration (saturation) of the FITC-labelled peptide, read-out: KD): ~140 µM | Kd (USP20 DUSP2 domain): 5.14 µM | Kd (USP20 DUSP2 K833E-K835E; USP20_DUSP2_K833E/K835E, direct FP titration (saturation) of the FITC-labelled peptide, read-out: KD): ~293 µM

Compound: Ac-VPSLDDFAGQSWSSWVE-NH2 [ATXN7L2_18-34]
Kd (USP22 zf-UBP domain): 19.3 µM

Compound: CC[C@H](C)[C@H](NC(=O)[C@H](CC(N)=O)NC(=O)[C@H](Cc1c[nH]c2ccccc12)NC(=O)[C@H](C)NC(=O)[C@H](CC(C)C)NC(=O)[C@H](CC(=O)O)NC(=O)[C@H](CC(=O)O)NC(=O)[C@H](CC(=O)O)NC(=O)[C@H](CO)NC(=S)Nc1ccc2c(c1)C(=O)OC21c2ccc(O)cc2Oc2cc(O)ccc21)C(=O)N[C@@H](C)C(=O)N1CCC[C@H]1C(=O)N[C@@H](CCC(N)=O)C(=O)NCC(=O)N[C@@H](CC(C)C)C(=O)N[C@@H](CCC(N)=O)C(N)=O [FITC-GPR137B348-362] ({FITC}-SDDDLAWNIAPQGLQ-NH2)
Kd (USP20 DUSP2 N805A; FP, FITC-labeled probe peptide, single mutant domain (Fig. 5F), technical triplicate, read-out: KD, USP20 DUSP2 N805A with FITC-labeled probe peptide): > 130 µM | Kd (USP20 DUSP2 K833E-K835E; FP, FITC-labeled probe peptide, double mutant domain (Fig. 5F), technical triplicate, read-out: KD, USP20 DUSP2 K833E-K835E with FITC-labeled probe peptide): > 290 µM

Compound: Ac-VPSPEAFLGKPWSSWIDAAKLH-NH2 [ATXN7L1_36-57]
Kd (USP22 zf-UBP domain): 0.1 µM

Compound: Ac-VPSPEAFLGKPWSSWID-NH2 [ATXN7L1_36-52]
Kd (USP22 zf-UBP domain): 11 µM

Continued, in another order:

Kd (USP11 DUSP-UBL domain): > 200 µM
Compound: SAVTYPDWIGQSYSEV [ORAI1_48-63]

Kd (USP20 zf-UBP domain): > 50 µM
Compound: ubiquitin C-terminus: ubiquitin C-terminal peptide (YLRLRGG) [reference compound]
binding of the ubiquitin C-terminus to USP33 zf-UBP (USP33 zf-UBP domain; [1]): do not bind the ubiquitin C-terminus with measurable affinity | binding of the ubiquitin C-terminus to USP20 zf-UBP (USP20 zf-UBP domain; [1]): do not bind the ubiquitin C-terminus with measurable affinity

Kd (USP33 zf-UBP domain; USP33_UBP, FP displacement by unlabelled peptide, read-out: KD): 7.86 µM | Kd (USP20 zf-UBP domain): 9.02 µM
Compound: YTNSSGKMALNSPQPG [IRAG1]
